Measurements from US20240383915A1, “OXAZEPINE COMPOUNDS AND USES THEREOF IN THE TREATMENT OF CANCER” (Genentech, Inc., priority 2021, published 2024).

What was measured:
[1] = biological target: KRas (Homo sapiens (Human), UniProt P01116); test: KRas GDP HTRF (BODIPY-GDP exchange TR-FRET); assay type: biochemical
Protocol: KRAS Biochemical Assay—BODIPY-GDP Exchange TR-FRET. Biochemical compound potencies were assessed by evaluating inhibition of SOS1-mediated nucleotide exchange in KRAS G12D. The SOS1-promoted exchange of fluorescently-labeled GDP (BODIPY-GDP) was monitored by time-resolved fluorescence resonance energy transfer (TR-FRET). Compounds solubilized in DMSO were dispensed as concentration series into 384-well white assay plates. […] The reaction was initiated with the addition of 5 μL of 3 nM recombinant human SOS1 and 300 nM BODIPY-GDP in assay buffer. After a 60-minute incubation, the fluorescence was measured with excitation at 337 nm and emission at 490 and 520 nm. The TR-FRET ratio was determined as the fluorescence at 520 nm divided by the fluorescence at 490 nm multiplied by 10,000. […] The normalized TR-FRET results were plotted against compound concentration, and the data fit to a 4-parameter Hill equation to determine the IC50 values.

[2] = biological target: KRas(G12V) (Homo sapiens (Human), UniProt P01116, G12V); test: KRas(G12V) GDP HTRF (BODIPY-GDP exchange TR-FRET); assay type: biochemical
Chain of KRas(G12V) (P01116-2 other isoform, or with tags, fused parts or gaps G12V): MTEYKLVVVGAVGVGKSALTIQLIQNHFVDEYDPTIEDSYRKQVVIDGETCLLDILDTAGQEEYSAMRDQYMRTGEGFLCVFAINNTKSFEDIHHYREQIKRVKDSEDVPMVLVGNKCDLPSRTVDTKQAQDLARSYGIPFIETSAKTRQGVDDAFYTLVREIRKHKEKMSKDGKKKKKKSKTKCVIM

Chain of KRas (P01116-2 other isoform, or with tags, fused parts or gaps): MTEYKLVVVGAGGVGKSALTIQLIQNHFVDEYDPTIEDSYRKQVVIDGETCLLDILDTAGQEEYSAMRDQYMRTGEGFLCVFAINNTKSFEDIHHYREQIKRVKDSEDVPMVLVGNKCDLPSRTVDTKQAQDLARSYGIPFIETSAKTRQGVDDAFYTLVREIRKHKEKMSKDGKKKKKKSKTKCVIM

Cc1cc(N)nc(-c2c(Cl)c3c4c(nc(OC[C@@]56CCCN5C[C@H](F)C6)nc4c2F)N([C@H](C)c2cc(F)cnc2N)CCO3)c1C(F)(F)F (atropisomer, axis not shown; (aS)) [Example 130a, 6-((R)-4-((R)-1-(2-amino-5-fluoropyridin-3-yl)ethyl)-8-chloro-10-fluoro-2-(((2R,7aS)-2-fluorotetrahydro-1H-pyrrolizin-7a(5H)-yl)methoxy)-5,6-dihydro-4H-[1,4]oxazepino[5,6,7-de]quinazolin-9-yl)-4-methyl-5-(trifluoromethyl)pyridin-2-amine]
IC50 [1]: 0.07 nM | IC50 [2]: 0.06 nM

Cc1cc(N)nc(-c2c(Cl)c3c4c(nc(OC[C@@H]5CC[C@H]6COCCN65)nc4c2F)N([C@H](C)c2ccnnc2N)CCO3)c1C(F)(F)F (atropisomer, axis not shown; (aS)) [Example 175, 4-((R)-1-((R)-9-(6-amino-4-methyl-3-(trifluoromethyl)pyridin-2-yl)-8-chloro-10-fluoro-2-(((6S,8aS)-hexahydro-1H-pyrrolo[2,1-c][1,4]oxazin-6-yl)methoxy)-5,6-dihydro-4H-[1,4]oxazepino[5,6,7-de]quinazolin-4-yl)ethyl)pyridazin-3-amine]
IC50 [1]: 0.1 nM | IC50 [2]: 0.08 nM

Cc1cc(N)nc(-c2c(Cl)c3c4c(nc(OC[C@@]56CCCN5C[C@H](F)C6)nc4c2F)N(C)CCO3)c1C(F)(F)F (single isomer, unassigned) [Example 41b]
IC50 [1]: 6500 nM | IC50 [2]: 1200 nM

Cc1cc(N)nc(-c2c(Cl)c3c4c(nc(OC[C@@H]5CC[C@H]6COCCN65)nc4c2F)N([C@H](C)c2cncc(N)c2)CCO3)c1C(F)(F)F (single isomer, unassigned) [Example 69a]
IC50 [1]: 0.295 nM | IC50 [2]: 0.11 nM

Cc1cc(N)nc(-c2c(Cl)c3c4c(nc(OC[C@@H]5CC(F)(F)CN5C)nc4c2F)N([C@H](C)c2cncc(N)c2)CCO3)c1C(F)(F)F (single isomer, unassigned) [Example 70a]
IC50 [1]: 8.3 nM | IC50 [2]: 0.49 nM

Cc1cc(N)nc(-c2c(Cl)c3c4c(nc(OC[C@@]56CCN5CC(F)(F)C6)nc4c2F)N([C@H](C)c2nccnc2N)CCO3)c1C(F)(F)F (single isomer, unassigned) [Example 162c]
IC50 [1]: 830 nM | IC50 [2]: 370 nM

Cc1cc(N)nc(-c2c(Cl)c3c4c(nc(OC[C@@]56CCN5CC(F)(F)C6)nc4c2F)N([C@H](C)c2nccnc2N)CCO3)c1C(F)(F)F (single isomer, unassigned) [Example 162d]
IC50 [1]: 896 nM | IC50 [2]: 410 nM

Cc1cc(N)nc(-c2cc3ncnc4c3c(c2Cl)OCCN4Cc2cncc(N)c2)c1C(F)(F)F [Example 3, 6-(4-((5-aminopyridin-3-yl)methyl)-8-chloro-5,6-dihydro-4H-[1,4]oxazepino[5,6,7-de]quinazolin-9-yl)-4-methyl-5-(trifluoromethyl)pyridin-2-amine]
IC50 [1]: 2900 nM | IC50 [2]: 540 nM

Cc1cc(N)nc(-c2cc3ncnc4c3c(c2Cl)OCCN4[C@@H](C)c2cncc(N)c2)c1C(F)(F)F [Example 4, (S)-6-(4-(1-(5-aminopyridin-3-yl)ethyl)-8-chloro-5,6-dihydro-4H-[1,4]oxazepino[5,6,7-de]quinazolin-9-yl)-4-methyl-5-(trifluoromethyl)pyridin-2-amine]
IC50 [1]: 10000 nM | IC50 [2]: 1400 nM

CNc1cncc(CN2CCOc3c(Cl)c(-c4nc(N)cc(C)c4C(F)(F)F)cc4ncnc2c34)c1 [Example 6, 6-(8-chloro-4-((5-(methylamino)pyridin-3-yl)methyl)-5,6-dihydro-4H-[1,4]oxazepino[5,6,7-de]quinazolin-9-yl)-4-methyl-5-(trifluoromethyl)pyridin-2-amine]
IC50 [1]: 6300 nM | IC50 [2]: 1300 nM

Cc1cc(N)nc(-c2cc3nc(OC[C@]45CCCN4CC(F)(F)C5)nc4c3c(c2Cl)OCCN4C)c1C(F)(F)F [Example 7, (R)-6-(8-chloro-2-((2,2-difluorotetrahydro-1H-pyrrolizin-7a(5H)-yl)methoxy)-4-methyl-5,6-dihydro-4H-[1,4]oxazepino[5,6,7-de]quinazolin-9-yl)-4-methyl-5-(trifluoromethyl)pyridin-2-amine]
IC50 [1]: 2300 nM | IC50 [2]: 420 nM

CN1CCOc2c(Cl)c(-c3c(F)ccc4cnn(C)c34)cc3nc(OC[C@@]45CCCN4C[C@H](F)C5)nc1c23 [Example 8, 8-chloro-9-(6-fluoro-1-methyl-1H-indazol-7-yl)-2-(((2R,7aS)-2-fluorotetrahydro-1H-pyrrolizin-7a(5H)-yl)methoxy)-4-methyl-5,6-dihydro-4H-[1,4]oxazepino[5,6,7-de]quinazoline]
IC50 [1]: 3900 nM | IC50 [2]: 810 nM

Cc1cc(N)nc(-c2cc3ncnc4c3c(c2Cl)OCCN4Cc2cncc(O)c2)c1C(F)(F)F [Example 9, 5-((9-(6-amino-4-methyl-3-(trifluoromethyl)pyridin-2-yl)-8-chloro-5,6-dihydro-4H-[1,4]oxazepino[5,6,7-de]quinazolin-4-yl)methyl)pyridin-3-ol]
IC50 [1]: 63000 nM | IC50 [2]: 10000 nM

Cc1cc(N)nc(-c2cc3nc(OC[C@@]45CCCN4CC(F)(F)C5)nc4c3c(c2Cl)OCCN4C)c1C(F)(F)F [Example 10, (S)-6-(8-chloro-2-((2,2-difluorotetrahydro-1H-pyrrolizin-7a(5H)-yl)methoxy)-4-methyl-5,6-dihydro-4H-[1,4]oxazepino[5,6,7-de]quinazolin-9-yl)-4-methyl-5-(trifluoromethyl)pyridin-2-amine]
IC50 [1]: 1300 nM | IC50 [2]: 300 nM

Cc1cc(N)nc(-c2cc3ncnc4c3c(c2Cl)OCCN4C2(c3cccnc3N)CC2)c1C(F)(F)F [Example 11, 6-(4-(1-(2-aminopyridin-3-yl)cyclopropyl)-8-chloro-5,6-dihydro-4H-[1,4]oxazepino[5,6,7-de]quinazolin-9-yl)-4-methyl-5-(trifluoromethyl)pyridin-2-amine]
IC50 [1]: 14000 nM | IC50 [2]: 1000 nM

Cc1cc(N)nc(-c2cc3ncnc4c3c(c2Cl)OCCN4Cc2cccc(=O)[nH]2)c1C(F)(F)F [Example 12, 6-((9-(6-amino-4-methyl-3-(trifluoromethyl)pyridin-2-yl)-8-chloro-5,6-dihydro-4H-[1,4]oxazepino[5,6,7-de]quinazolin-4-yl)methyl)pyridin-2(1H)-one]
IC50 [1]: 21000 nM | IC50 [2]: 8900 nM

Cc1cc(N)nc(-c2cc3ncnc4c3c(c2Cl)OCCN4CCC#N)c1C(F)(F)F [Example 13, 3-(9-(6-amino-4-methyl-3-(trifluoromethyl)pyridin-2-yl)-8-chloro-5,6-dihydro-4H-[1,4]oxazepino[5,6,7-de]quinazolin-4-yl)propanenitrile]
IC50 [1]: 36000 nM | IC50 [2]: 13000 nM

Cc1cc(N)nc(-c2cc3ncnc4c3c(c2Cl)OCCN4CCC2COC2)c1C(F)(F)F [Example 14, 6-(8-chloro-4-(2-(oxetan-3-yl)ethyl)-5,6-dihydro-4H-[1,4]oxazepino[5,6,7-de]quinazolin-9-yl)-4-methyl-5-(trifluoromethyl)pyridin-2-amine]
IC50 [1]: 200000 nM | IC50 [2]: 21000 nM

Cc1cc(N)nc(-c2cc3ncnc4c3c(c2Cl)OCCN4C(C)c2cnc[nH]2)c1C(F)(F)F (centres unmarked) [Example 15, 6-(4-(1-(1H-imidazol-5-yl)ethyl)-8-chloro-5,6-dihydro-4H-[1,4]oxazepino[5,6,7-de]quinazolin-9-yl)-4-methyl-5-(trifluoromethyl)pyridin-2-amine]
IC50 [1]: 31000 nM | IC50 [2]: 3600 nM

Cc1cc(N)nc(-c2cc3ncnc4c3c(c2Cl)OCCN4C(C)CO)c1C(F)(F)F (centres unmarked) [Example 16, 2-(9-(6-amino-4-methyl-3-(trifluoromethyl)pyridin-2-yl)-8-chloro-5,6-dihydro-4H-[1,4]oxazepino[5,6,7-de]quinazolin-4-yl)propan-1-ol]
IC50 [1]: 32000 nM | IC50 [2]: 6900 nM

Cc1cc(N)nc(-c2cc3ncnc4c3c(c2Cl)OCCN4C2CCc3ccncc32)c1C(F)(F)F (centres unmarked) [Example 21, 6-(8-chloro-4-(6,7-dihydro-5H-cyclopenta[c]pyridin-7-yl)-5,6-dihydro-4H-[1,4]oxazepino[5,6,7-de]quinazolin-9-yl)-4-methyl-5-(trifluoromethyl)pyridin-2-amine]
IC50 [1]: 3400 nM | IC50 [2]: 1600 nM

Cc1cc(N)nc(-c2cc3ncnc4c3c(c2Cl)OCCN4Cc2ccns2)c1C(F)(F)F [Example 22, 6-(8-chloro-4-(isothiazol-5-ylmethyl)-5,6-dihydro-4H-[1,4]oxazepino[5,6,7-de]quinazolin-9-yl)-4-methyl-5-(trifluoromethyl)pyridin-2-amine]
IC50 [1]: 43000 nM | IC50 [2]: 11000 nM

Cc1cc(N)nc(-c2cc3ncnc4c3c(c2Cl)OCCN4Cc2scnc2N)c1C(F)(F)F [Example 25, 5-((9-(6-amino-4-methyl-3-(trifluoromethyl)pyridin-2-yl)-8-chloro-5,6-dihydro-4H-[1,4]oxazepino[5,6,7-de]quinazolin-4-yl)methyl)thiazol-4-amine]
IC50 [1]: 2000 nM | IC50 [2]: 510 nM

Cc1cc(N)nc(-c2cc3ncnc4c3c(c2Cl)OCCN4C(C)(C)c2cccnc2N)c1C(F)(F)F [Example 27, 6-(4-(2-(2-aminopyridin-3-yl)propan-2-yl)-8-chloro-5,6-dihydro-4H-[1,4]oxazepino[5,6,7-de]quinazolin-9-yl)-4-methyl-5-(trifluoromethyl)pyridin-2-amine]
IC50 [1]: 1400 nM | IC50 [2]: 580 nM

CSc1cncc(CN2CCOc3c(Cl)c(-c4nc(N)cc(C)c4C(F)(F)F)cc4ncnc2c34)c1 [Example 29, 6-(8-chloro-4-((5-(methylthio)pyridin-3-yl)methyl)-5,6-dihydro-4H-[1,4]oxazepino[5,6,7-de]quinazolin-9-yl)-4-methyl-5-(trifluoromethyl)pyridin-2-amine]
IC50 [1]: 7400 nM | IC50 [2]: 7400 nM
